Assay results reported in ChEMBL document CHEMBL1201862, “PubChem BioAssay data set” (2004).
Activity calls are given as the source filed them.

What was measured:
[1] = target: T1, Neuropeptides B/W receptor type 1 (Homo sapiens, UniProt P48145); test: human NPBW1 receptor blockade, IC50 – cell-based, fluorescence, dose response, set 5, late-stage follow-up (AID 588566); assay type: functional
[2] = target: T2, Melanin-concentrating hormone receptor 1 (Homo sapiens, UniProt Q99705); test: Late-stage fluorescence-based counterscreen for antagonists of the G-protein coupled receptor 7 (GPR7): cell-based dose response assay to identify antagonists of the melanin-concentrating hormone receptor 1 (MCHR1) Set 5.; assay type: functional
T2 sequence (Q99705 whole entry): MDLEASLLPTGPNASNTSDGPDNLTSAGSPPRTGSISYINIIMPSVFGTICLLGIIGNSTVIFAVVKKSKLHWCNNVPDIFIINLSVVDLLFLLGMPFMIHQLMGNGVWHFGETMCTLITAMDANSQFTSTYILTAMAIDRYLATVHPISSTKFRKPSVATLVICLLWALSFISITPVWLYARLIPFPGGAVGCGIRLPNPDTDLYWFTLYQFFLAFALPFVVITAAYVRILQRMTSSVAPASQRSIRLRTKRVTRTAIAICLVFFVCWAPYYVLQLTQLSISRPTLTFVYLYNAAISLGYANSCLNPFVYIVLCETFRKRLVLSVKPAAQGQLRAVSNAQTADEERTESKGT

[3] = target: Benomyl/methotrexate resistance protein (Candida albicans, UniProt P28873); test: Candida albicans Mdr1 pump blockade titration – singleplex, Cherry Pick2 set, dose response (AID 623992); assay type: functional; conditions: read-out: EC50_MICROM
[4] = target: T2, Melanin-concentrating hormone receptor 1; test: Late-stage fluorescence-based counterscreen for antagonists of the G-protein coupled receptor 7 (GPR7): cell-based dose response assay to identify antagonists of the melanin-concentrating hormone receptor 1 (MCHR1) Set 6.; assay type: functional
[5] = target: T1, Neuropeptides B/W receptor type 1; test: human NPBW1 receptor blockade, IC50 – cell-based, fluorescence, dose response, set 6, late-stage follow-up (AID 588583); assay type: functional
Misshapen-like kinase 1 = Misshapen-like kinase 1 (Homo sapiens, UniProt Q8N4C8); assay type: functional;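 also: kinome panel screen with MINK as the panel member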
[6] = target: Protein kinase C delta type (Homo sapiens, UniProt Q05655); assay type: functional
[7] = target: Mitogen-activated protein kinase kinase kinase kinase 4 (Homo sapiens, UniProt O95819); assay type: functional
Mitogen-activated protein kinase kinase kinase kinase 4, sequence (O95819 whole entry): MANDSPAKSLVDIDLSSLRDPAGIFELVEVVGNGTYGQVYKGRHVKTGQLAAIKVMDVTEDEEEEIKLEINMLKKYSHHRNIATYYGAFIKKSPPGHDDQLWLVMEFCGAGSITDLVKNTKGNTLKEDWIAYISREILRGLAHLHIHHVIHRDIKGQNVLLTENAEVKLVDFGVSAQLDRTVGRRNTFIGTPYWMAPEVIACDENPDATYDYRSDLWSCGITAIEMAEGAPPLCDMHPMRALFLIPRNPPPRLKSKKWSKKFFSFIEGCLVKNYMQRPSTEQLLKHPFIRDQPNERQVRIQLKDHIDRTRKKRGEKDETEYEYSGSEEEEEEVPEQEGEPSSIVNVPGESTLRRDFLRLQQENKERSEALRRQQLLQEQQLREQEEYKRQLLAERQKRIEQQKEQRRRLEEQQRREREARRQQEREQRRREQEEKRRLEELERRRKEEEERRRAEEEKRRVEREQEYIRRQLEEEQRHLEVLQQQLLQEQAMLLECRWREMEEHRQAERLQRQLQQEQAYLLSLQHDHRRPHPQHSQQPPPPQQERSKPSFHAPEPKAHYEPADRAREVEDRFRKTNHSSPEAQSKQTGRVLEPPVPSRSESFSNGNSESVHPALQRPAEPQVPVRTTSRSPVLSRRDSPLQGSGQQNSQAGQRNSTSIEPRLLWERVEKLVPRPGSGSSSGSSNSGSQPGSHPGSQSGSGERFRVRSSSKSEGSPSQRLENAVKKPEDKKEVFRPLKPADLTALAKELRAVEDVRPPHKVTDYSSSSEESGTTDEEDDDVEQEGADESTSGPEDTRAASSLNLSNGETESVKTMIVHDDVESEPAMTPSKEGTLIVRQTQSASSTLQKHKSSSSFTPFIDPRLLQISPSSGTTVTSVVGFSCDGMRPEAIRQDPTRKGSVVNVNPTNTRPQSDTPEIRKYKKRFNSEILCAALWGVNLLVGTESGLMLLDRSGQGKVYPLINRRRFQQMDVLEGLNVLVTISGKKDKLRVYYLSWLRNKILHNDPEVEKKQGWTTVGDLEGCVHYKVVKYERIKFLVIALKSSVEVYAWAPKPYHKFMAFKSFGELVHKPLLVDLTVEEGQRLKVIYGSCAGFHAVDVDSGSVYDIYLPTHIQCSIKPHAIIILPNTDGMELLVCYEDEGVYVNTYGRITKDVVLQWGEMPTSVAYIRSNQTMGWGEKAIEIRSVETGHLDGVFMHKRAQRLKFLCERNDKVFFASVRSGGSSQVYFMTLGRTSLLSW

[8] = target: DNA dC->dU-editing enzyme APOBEC-3G (Homo sapiens, UniProt Q9HC16); test: inhibition of APOBEC3G ssDNA deamination – biochemical, fluorescence, single-stranded DNA substrate, SAR follow-up (AID 602136); assay type: functional; conditions: read-out: IC50_Mean
[9] = target: DNA dC->dU-editing enzyme APOBEC-3A (Homo sapiens, UniProt P31941); test: SAR analysis of small molecule inhibitors of APOBEC3A DNA Deaminase via a fluorescence-based single-stranded DNA deaminase assay.; assay type: functional; conditions: read-out: IC50_Mean
DNA dC->dU-editing enzyme APOBEC-3A, sequence (P31941 whole entry): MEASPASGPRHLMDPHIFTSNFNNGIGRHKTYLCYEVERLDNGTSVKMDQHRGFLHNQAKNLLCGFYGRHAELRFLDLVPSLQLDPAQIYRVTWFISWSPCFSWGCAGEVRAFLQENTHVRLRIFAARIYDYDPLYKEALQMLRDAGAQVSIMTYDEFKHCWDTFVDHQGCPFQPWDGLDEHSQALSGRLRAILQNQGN

[10] = target: T3, Sentrin-specific protease 7 (Homo sapiens, UniProt Q9BQF6); test: inhibition of human SENP7 cleavage activity – biochemical, luminescence, SAR follow-up (AID 504497); assay type: functional
T3 sequence (Q9BQF6 whole entry): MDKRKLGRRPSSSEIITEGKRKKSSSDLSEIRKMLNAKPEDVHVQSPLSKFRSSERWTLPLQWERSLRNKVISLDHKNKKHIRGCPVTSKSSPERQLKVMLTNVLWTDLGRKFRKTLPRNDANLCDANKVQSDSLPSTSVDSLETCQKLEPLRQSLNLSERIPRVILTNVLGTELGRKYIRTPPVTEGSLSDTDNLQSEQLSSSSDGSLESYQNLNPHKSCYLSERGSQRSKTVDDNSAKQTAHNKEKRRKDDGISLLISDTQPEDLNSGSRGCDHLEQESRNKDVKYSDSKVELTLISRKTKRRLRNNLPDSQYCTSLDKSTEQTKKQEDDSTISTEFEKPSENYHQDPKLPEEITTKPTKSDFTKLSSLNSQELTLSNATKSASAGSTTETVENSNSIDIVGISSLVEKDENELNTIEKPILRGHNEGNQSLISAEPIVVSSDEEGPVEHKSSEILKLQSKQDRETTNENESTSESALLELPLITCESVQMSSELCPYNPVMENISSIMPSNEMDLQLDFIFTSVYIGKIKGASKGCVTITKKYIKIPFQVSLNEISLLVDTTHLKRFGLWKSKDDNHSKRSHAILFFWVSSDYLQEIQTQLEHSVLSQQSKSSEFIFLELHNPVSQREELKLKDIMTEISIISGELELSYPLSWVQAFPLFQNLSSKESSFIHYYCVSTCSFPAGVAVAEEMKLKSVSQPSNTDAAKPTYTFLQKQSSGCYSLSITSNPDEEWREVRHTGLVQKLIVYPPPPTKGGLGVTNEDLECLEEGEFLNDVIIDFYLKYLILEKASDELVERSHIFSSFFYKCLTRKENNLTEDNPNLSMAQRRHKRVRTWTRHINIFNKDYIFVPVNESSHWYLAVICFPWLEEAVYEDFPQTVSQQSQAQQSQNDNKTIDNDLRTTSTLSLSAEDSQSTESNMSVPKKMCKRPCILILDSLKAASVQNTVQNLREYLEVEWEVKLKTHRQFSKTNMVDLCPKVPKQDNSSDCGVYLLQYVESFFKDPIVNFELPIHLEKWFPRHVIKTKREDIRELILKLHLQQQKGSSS

Caspase-3 = target: T4, Caspase-3 (Homo sapiens, UniProt P42574); test: SAR Analysis of small molecule inhibitors of Sentrin-specific proteases (SENPs) using a Caspase-3 Selectivity assay. [Related pubchem assays (depositor defined):AID2540, AID2599, AID434973, AID489001]; assay type: functional
T4 sequence (P42574 whole entry): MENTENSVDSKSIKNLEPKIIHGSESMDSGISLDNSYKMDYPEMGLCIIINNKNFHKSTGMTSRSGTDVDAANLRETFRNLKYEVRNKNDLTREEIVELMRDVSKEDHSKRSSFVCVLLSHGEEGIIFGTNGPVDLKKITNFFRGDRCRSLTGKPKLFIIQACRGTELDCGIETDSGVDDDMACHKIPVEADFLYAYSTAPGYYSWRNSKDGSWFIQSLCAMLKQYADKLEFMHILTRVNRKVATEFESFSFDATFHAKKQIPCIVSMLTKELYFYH

[11] = target: T5, Sentrin-specific protease 8 (Homo sapiens, UniProt Q96LD8); test: inhibition of human SENP8 cleavage activity – biochemical, luminescence, SAR follow-up (AID 504501); assay type: functional
T5 sequence (Q96LD8 whole entry): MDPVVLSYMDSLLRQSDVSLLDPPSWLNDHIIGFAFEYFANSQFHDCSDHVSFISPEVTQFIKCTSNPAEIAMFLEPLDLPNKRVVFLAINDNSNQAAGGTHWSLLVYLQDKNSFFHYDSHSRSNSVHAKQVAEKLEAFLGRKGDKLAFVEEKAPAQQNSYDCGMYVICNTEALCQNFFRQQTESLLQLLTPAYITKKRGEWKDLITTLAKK

[12] = target: T6, Sentrin-specific protease 6 (Homo sapiens, UniProt Q9GZR1); test: SAR Analysis of small molecule inhibitors of Sentrin-specific protease 6 (SENP6) using a Luminescent assay. [Related pubchem assays (depositor defined):AID2582, AID2599]; assay type: functional
T6 sequence (Q9GZR1 whole entry): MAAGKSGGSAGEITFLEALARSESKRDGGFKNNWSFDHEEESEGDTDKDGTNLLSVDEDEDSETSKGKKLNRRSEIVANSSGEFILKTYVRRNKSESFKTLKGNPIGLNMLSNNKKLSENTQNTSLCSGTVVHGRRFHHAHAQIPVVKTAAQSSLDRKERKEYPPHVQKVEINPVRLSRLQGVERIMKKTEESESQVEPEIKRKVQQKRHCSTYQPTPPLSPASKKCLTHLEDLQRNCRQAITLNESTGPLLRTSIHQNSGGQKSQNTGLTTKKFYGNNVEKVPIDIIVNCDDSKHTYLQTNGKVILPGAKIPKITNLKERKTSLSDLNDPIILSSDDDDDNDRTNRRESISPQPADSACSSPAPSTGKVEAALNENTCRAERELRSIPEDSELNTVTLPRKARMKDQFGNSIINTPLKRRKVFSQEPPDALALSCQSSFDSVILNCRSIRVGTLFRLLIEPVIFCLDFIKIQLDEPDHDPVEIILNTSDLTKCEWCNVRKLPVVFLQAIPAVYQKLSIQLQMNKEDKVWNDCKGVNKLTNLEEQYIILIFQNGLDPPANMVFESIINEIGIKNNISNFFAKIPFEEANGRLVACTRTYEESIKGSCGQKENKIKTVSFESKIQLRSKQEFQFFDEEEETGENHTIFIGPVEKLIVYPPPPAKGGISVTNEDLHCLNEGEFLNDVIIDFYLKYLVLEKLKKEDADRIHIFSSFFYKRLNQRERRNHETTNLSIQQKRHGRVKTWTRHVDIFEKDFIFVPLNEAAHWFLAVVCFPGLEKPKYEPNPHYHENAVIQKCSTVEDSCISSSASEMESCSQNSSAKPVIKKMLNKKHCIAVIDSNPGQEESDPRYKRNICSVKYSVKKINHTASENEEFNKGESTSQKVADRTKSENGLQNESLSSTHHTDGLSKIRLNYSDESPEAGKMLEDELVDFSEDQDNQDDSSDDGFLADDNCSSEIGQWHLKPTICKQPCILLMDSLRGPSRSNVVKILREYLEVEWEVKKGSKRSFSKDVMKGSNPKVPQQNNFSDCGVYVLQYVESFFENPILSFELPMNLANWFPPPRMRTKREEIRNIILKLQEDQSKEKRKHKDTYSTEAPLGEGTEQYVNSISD

[13] = CCR5-tropic HIV-1 fusion blockers – cell-based, CCR5-tropic Env, dose response (AID 2279); assay type: functional
[14] = microbe, parasite or virus in culture; assay type: functional; conditions: Mycobacterium tuberculosis
[15] = A Cell Based Secondary Assay to Explore Cytotoxicity in THP-1 Cells of Compounds that Modulate Mycobacterium tuberculosis in Media Containing Glycerol versus Media without Glycerol (2).; assay type: functional
[16] = Vero cell cytotoxicity, cytotoxicity control for M. tuberculosis inhibitor project, purified and synthesized samples, set 3 (AID 504684); assay type: functional
[17] = A Cell Based Secondary Assay to Explore Cytotoxicity in HepG2 Cells of Compounds that Modulate Mycobacterium tuberculosis in Media Containing Glycerol versus Media without Glycerol (2).; assay type: functional
[18] = target: Cyclin-dependent kinase 2 (Homo sapiens, UniProt P24941); assay type: functional;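 also: CDK2 measured as one member of a broad kinome profiling panel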
[19] = target: Homeodomain-interacting protein kinase 2 (Homo sapiens, UniProt Q9H2X6); assay type: functional;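 also: measured within a kinome-wide kinase profiling panel, HIPK2 being one panel member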
[20] = target: cAMP-dependent protein kinase catalytic subunit alpha (Homo sapiens, UniProt P17612); assay type: functional
[21] = target: Serine/threonine-protein kinase pim-1 (Homo sapiens, UniProt P11309); assay type: functional
[22] = target: Interleukin-1 receptor-associated kinase 4 (Homo sapiens, UniProt Q9NWZ3); assay type: functional
[23] = target: Dual specificity protein kinase CLK4 (Homo sapiens, UniProt Q9HAZ1); assay type: functional
[24] = target: Cell division cycle 7-related protein kinase (Homo sapiens, UniProt O00311); assay type: functional;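 also: value obtained from a kinome-wide kinase panel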
[25] = target: Glycogen synthase kinase-3 beta (Homo sapiens, UniProt P49841); assay type: functional;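 also: value comes from a broad kinome profiling panel, with GSK3B as the panel member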
Glycogen synthase kinase-3 beta, sequence (P49841 whole entry): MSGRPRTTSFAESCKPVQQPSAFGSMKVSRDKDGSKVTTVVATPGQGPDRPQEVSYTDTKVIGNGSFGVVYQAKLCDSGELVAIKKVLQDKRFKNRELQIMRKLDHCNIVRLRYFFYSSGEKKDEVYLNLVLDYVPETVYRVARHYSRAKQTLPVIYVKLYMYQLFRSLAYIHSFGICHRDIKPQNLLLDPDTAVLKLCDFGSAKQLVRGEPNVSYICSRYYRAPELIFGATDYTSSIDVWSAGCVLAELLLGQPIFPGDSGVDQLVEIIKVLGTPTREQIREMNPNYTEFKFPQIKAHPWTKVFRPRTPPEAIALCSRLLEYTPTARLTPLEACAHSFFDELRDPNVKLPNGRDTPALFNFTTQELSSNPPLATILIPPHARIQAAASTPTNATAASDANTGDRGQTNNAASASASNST

[26] = cAMP pathway inhibition in counterscreen cell line – TR-FRET cAMP detection, counter-screen for MC4R biased antagonist project, dose response (AID 602305); assay type: functional, cell-based;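 also: U2OS cells stimulated with forskolin near its EC80 as the cAMP inducer; potency is for inhibition of forskolin-stimulated cAMP signaling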
Melanocortin receptor 4 = Melanocortin receptor 4 (Homo sapiens, UniProt P32245); test: inhibitors of MC4R cAMP signaling – cell-based, TR-FRET, biased antagonists, dose response (AID 602298); assay type: functional;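 also: antagonist potency against agonist-stimulated cAMP production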
Melanocortin receptor 4, sequence (P32245 whole entry): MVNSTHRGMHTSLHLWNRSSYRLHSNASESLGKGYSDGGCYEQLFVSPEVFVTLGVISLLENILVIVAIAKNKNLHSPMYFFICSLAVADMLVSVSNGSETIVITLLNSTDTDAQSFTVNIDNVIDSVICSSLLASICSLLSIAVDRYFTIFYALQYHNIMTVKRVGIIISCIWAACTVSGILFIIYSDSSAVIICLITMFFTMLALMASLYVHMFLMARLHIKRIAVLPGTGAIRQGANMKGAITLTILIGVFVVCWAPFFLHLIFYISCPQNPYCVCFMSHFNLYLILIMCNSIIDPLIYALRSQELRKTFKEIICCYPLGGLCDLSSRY

[27] = HEK-293T cell viability reduction – luminescence, B-cell screen hits, cytotoxicity control for BCR NF-kB inhibitor project, dose response (AID 489021); assay type: functional, cell-based;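 also: HEK-293T cells carrying an NF-kB luciferase reporter; cells exposed to compound for about 14 hours before viability readout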
[28] = target: Hepatocyte growth factor receptor (Homo sapiens, UniProt P08581); assay type: functional;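 also: kinase panel profiling across the kinome, with MET as the panel member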
[29] = target: Tyrosine-protein kinase ABL1 (Homo sapiens, UniProt P00519); assay type: functional
[30] = target: Fibroblast growth factor receptor 3 (Homo sapiens, UniProt P22607); assay type: functional
Fibroblast growth factor receptor 3, sequence (P22607 whole entry): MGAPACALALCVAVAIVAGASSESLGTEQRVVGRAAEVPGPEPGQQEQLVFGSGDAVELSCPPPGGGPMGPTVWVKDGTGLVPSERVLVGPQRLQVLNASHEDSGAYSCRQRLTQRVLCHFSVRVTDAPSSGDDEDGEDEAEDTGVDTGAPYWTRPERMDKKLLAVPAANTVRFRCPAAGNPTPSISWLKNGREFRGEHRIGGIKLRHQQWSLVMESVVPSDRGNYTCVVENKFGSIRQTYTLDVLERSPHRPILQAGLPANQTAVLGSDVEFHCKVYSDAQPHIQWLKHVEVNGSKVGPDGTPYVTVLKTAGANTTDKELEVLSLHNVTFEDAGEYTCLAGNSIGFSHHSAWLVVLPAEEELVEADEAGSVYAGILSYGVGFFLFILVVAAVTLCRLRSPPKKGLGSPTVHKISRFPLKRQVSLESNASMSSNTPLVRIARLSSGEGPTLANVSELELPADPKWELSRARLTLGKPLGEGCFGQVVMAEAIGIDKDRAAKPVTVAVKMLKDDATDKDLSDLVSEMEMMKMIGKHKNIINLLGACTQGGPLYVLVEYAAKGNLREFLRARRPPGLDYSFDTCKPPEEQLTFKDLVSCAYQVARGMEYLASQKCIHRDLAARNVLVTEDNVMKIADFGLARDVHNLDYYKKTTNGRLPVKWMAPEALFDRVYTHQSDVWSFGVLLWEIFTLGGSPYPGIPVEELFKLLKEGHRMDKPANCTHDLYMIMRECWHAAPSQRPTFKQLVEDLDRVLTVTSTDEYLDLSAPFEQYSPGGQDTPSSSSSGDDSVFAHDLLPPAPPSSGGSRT

Focal adhesion kinase 1 = Focal adhesion kinase 1 (Homo sapiens, UniProt Q05397); assay type: functional;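 also: measured as one member of a kinome panel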
[31] = target: Tyrosine-protein kinase SYK (Homo sapiens, UniProt P43405); assay type: functional
[32] = target: Insulin-like growth factor 1 receptor (Homo sapiens, UniProt P08069); test: Navigating the Kinome. Panel member name: IGF1R; assay type: functional
Insulin-like growth factor 1 receptor, sequence (P08069 31-736 limits assumed): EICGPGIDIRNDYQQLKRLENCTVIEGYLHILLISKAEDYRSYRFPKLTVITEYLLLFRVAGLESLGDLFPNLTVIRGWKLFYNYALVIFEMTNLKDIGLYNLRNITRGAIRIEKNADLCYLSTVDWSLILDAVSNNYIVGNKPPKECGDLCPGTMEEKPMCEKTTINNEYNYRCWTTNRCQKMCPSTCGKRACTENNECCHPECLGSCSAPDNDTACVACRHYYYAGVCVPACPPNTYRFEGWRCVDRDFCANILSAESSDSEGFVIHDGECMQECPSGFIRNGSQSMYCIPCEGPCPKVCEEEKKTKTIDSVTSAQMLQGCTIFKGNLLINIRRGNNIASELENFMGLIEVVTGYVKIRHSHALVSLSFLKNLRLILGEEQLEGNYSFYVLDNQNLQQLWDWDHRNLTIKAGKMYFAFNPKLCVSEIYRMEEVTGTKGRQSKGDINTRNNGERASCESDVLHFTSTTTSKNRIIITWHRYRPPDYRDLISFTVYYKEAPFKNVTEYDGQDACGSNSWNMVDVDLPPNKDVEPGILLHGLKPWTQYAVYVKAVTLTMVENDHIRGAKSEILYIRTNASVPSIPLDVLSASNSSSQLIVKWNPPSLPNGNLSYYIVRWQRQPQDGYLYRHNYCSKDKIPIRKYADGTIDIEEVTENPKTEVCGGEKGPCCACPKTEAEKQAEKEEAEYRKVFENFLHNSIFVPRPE
Insulin-like growth factor 1 receptor, sequence (P08069 741-1367 limits assumed): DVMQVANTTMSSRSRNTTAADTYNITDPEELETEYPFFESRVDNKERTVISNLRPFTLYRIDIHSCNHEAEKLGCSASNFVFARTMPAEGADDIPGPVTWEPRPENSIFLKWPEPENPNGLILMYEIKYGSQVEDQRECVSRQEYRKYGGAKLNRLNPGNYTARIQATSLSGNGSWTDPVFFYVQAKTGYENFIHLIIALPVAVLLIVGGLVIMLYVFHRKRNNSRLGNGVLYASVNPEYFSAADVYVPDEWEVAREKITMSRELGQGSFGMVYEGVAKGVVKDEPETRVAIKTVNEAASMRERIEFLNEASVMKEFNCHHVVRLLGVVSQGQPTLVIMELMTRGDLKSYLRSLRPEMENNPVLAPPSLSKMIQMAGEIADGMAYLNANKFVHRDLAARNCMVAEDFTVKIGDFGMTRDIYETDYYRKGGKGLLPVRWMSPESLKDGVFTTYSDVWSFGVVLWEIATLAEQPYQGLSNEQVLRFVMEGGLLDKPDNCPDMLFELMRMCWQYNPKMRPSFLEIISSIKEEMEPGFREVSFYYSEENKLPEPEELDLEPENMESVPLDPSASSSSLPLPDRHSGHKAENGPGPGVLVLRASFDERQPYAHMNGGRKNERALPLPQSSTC

[33] = target: Leucine-rich repeat serine/threonine-protein kinase 2 (Homo sapiens, UniProt Q5S007); assay type: functional;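 also: value from a broad kinome-wide panel profiling study in which LRRK2 was one of the kinases tested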

T1 sequence (P48145 whole entry): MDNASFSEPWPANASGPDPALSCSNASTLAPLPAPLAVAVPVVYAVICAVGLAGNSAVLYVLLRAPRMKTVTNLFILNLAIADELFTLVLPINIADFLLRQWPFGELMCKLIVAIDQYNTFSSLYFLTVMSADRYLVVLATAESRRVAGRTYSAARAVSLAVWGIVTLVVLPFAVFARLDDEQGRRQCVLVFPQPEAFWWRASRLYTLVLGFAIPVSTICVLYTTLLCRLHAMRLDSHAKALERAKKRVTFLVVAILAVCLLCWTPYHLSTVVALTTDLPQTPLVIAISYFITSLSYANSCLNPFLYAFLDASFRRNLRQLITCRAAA

Structure (SMILES): COc1c(F)cc(Oc2c(Cl)cnn(Cc3cccc4ccccc34)c2=O)cc1F
- IC50 [1]: 2.2 µM (active)
- IC50 [2]: 7.43 µM (active)

Structure (SMILES): O=C(c1ccc2c(c1)OCO2)N1CCC2(CC1)Oc1ccc(F)cc1C(=O)C21CC(c2ccccc2)=NO1 (stereo not drawn)
- EC50 [3]: 9.25 µM (active)

Structure (SMILES): N#CC(c1c(F)cccc1F)c1c(Cl)cnn(Cc2cccc3ccccc23)c1=O (stereo not drawn)
- IC50 [4]: 1.61 µM (active)
- IC50 [5]: 1.61 µM (active)

Structure (SMILES): CC(C)Oc1ccc(-c2noc(-c3ccc(OCC(O)CO)cc3)n2)cc1Cl (stereo not drawn)
- Ki (Misshapen-like kinase 1): 6.31 µM (active)
- Ki [6]: 7.94 µM (active)
- Ki [7]: 2 µM (active)

Structure (SMILES): Cc1ccc(NC(=O)CCSc2nnc3scc(-c4ccccc4)n23)cc1
- IC50 [8]: > 99 µM (inactive)
- IC50 [9]: > 99 µM (inactive)

Structure (SMILES): Clc1ccc(N/N=C/c2c[nH]c3ccccc23)cc1
- IC50 [10]: 57 µM (active)
- IC50 (Caspase-3): > 99 µM (inactive)
- IC50 [11]: > 99 µM (inactive)
- IC50 [12]: > 99 µM (inactive)

Structure (SMILES): CC(C)NC(=O)c1sc(=S)n2c1[nH]c(=O)c1ccc(C(=O)NCCc3ccc(Cl)cc3)cc12
- IC50 [13]: 41.5 µM (active)
- CC50 [14]: > 40 µM (active)
- CC50 [15]: > 100 µM (active)
- CC50 [16]: > 100 µM (active)
- CC50 [17]: > 50 µM (active)

Structure (SMILES): O=c1cc(-c2ccc(F)cc2)[nH]c2c(-c3ccc(F)cc3)cnn12
- Ki [18]: > 7.94 µM (inactive)
- Ki [19]: 0.2 µM (active)
- Ki [20]: > 7.94 µM (inactive)
- Ki [21]: 0.0501 µM (active)
- Ki [22]: > 10 µM (inactive)
- Ki [23]: 0.158 µM (active)
- Ki [24]: 0.0501 µM (active)
- Ki [7]: > 10 µM (inactive)
- Ki [25]: 0.501 µM (active)

Structure (SMILES): O=C1NC[C@H](c2ccccc2)OC(=O)[C@@H](Cc2ccc(F)cc2)C/C=C\C[C@H]1CC(=O)N(CCO)Cc1ccccc1
- IC50 [26]: > 64.6 µM (inactive)
- IC50 (Melanocortin receptor 4): > 64.6 µM (inactive)
- IC50 [27]: 30.3 µM (inactive)

Structure (SMILES): c1ccc(CNc2nc(Nc3cc(C4CC4)[nH]n3)c3sccc3n2)cc1
- Ki [28]: 0.794 µM (active)
- Ki [29]: 0.01 µM (active)
- Ki [30]: 0.00316 µM (active)
- Ki (Focal adhesion kinase 1): 0.00501 µM (active)
- Ki [31]: 0.0126 µM (active)
- Ki [32]: 0.0794 µM (active)
- Ki [33]: 0.01 µM (active)
